Structures can show the parent of a compound that is named as a salt. Where two headings read alike, the source gives them in different places.
Tested on: sciatic nerve
Assay: Sciatic nerve blockade after injection at the sciatic nerve notch in rats
Assay type: in vivo
Set-up: AUC of time-% PE curve, sciatic nerve blockade of motor function / AUC of time-% PE curve, sciatic nerve blockade of proprioception / AUC of time-% PE curve, sciatic nerve blockade of nociceptive reaction: unit not given beside the values
Conditions: for ED50: Rattus norvegicus
Description: Male Sprague-Dawley rats (weighing about 300 to 350 g); for each dose of each drug, n=6.
In brief, the rats were slightly anesthetized by inhalation of a low concentration of sevoflurane. Then, 200 μL of tested drugs were injected at the sciatic nerve notch at the left hind limb of the rat using a 27-gauge needle connected to a tuberculin syringe (Becton Dickinson, USA, model BND309623-BX). Thereafter, development of sciatic nerve blockade was observed from the paralysis of the left hind limb of the rat. The right hind limb served as a control during the subsequent functional assay
For proprioception, the front half of the rat body and the right hind limb were off the ground at the same time so that the rat was standing on the left hind limb during the measurement.
The differences resided in that: The sciatic nerve notch injections of ED25, ED50 and ED75 were conducted based on the method described in the preceding section “A. Drug injection” of this example. Evaluations of motor function, proprioception and nociceptive reaction were conducted based on the method described in section “B. Neurobehavioral evaluations” of this example.
The differences resided in that: Before the statistical analysis, Shapiro-Wilk test was used to evaluate whether the data were, theoretically, normally distributed.

[1] = dosage of 6.7 mg/kg, sciatic nerve notch injection, rats
[2] = rats, 2ED50 when administered independently, ED50 of each drug when co-administered, mean ± SEM

Q: How did the “sciatic nerve blocking effect on nociceptive reaction compared with motor function” value (ED50 basis, p<0.01, rats) turn out when `COc1ccc2c(c1)[C@]13CCCC[C@@H]1[C@H](C2)N(C)CC3` [Dextromethorphan hydrobromide monohydrate] was run?
A: The value was “more potent sciatic nerve blocking effect on nociceptive reaction than on motor function”.

Q: And the ED50 (read-out: Mean ED50)?
A: The ED50 was 3.72 mg/kg.

Q: What about the ED50 (read-out: Motor function ED50 (95% CI)) of the same compound?
A: Its ED50 is 3.95 mg/kg.

Q: And the ED50 (read-out: Nociceptive reaction ED50 (95% CI))?
A: Its ED50 is 3.49 mg/kg.

Q: What about the ED50 (read-out: Proprioception ED50 (95% CI)) of the same compound?
A: The ED50 was 3.73 mg/kg.

Q: And the “% MPE of sciatic nerve blockade of motor function” value [1]?
A: The value was “about 71±7 % MPE”.

Q: And the “% MPE of sciatic nerve blockade of nociceptive reaction” value [1]?
A: The value was roughly 83±11 % MPE.

Q: What about the “% MPE of sciatic nerve blockade of proprioception” value [1] of the same compound?
A: The value was roughly 78±7 % MPE.

Q: What about the “duration of sciatic nerve blockade of motor function” value [1] of the same compound?
A: The value was “about 77±10 minutes”.

Q: And the “duration of sciatic nerve blockade of nociceptive reaction” value [1]?
A: The value was roughly 85 ± 11 min.

Q: What about the “duration of sciatic nerve blockade of proprioception” value [1] of the same compound?
A: Its value is roughly 78 ± 8 min.

Q: And the “effect of co-administration with lidocaine hydrochloride on sciatic nerve blockades” value (rats, ED50 of each drug)?
A: The value was “additive effect”.

Q: What about the “AUC of time-% PE curve, sciatic nerve blockade of motor function” value [2] of the same compound?
A: The value was 4056 ± 212.

Q: What about the “AUC of time-% PE curve, sciatic nerve blockade of nociceptive reaction” value [2] of the same compound?
A: The value was 6295 ± 643.

Q: What about the “AUC of time-% PE curve, sciatic nerve blockade of proprioception” value [2] of the same compound?
A: Its value is 5498 ± 507.

Q: And the “duration of sciatic nerve blockade compared with lidocaine hydrochloride” value (same effective doses (ED25, ED50 or ED75), rats)?
A: The value was “longer reaction duration”.
